The series can be described thus: GVS characterization of Form III. Particulars: at 90% RH. In kind it is physicochemical.

Regarding `Cc1cc(C)cc([C@@H]2CCCN2Cc2ccc(Oc3ccc(C(N)=O)cc3F)cc2)c1` [Form III], the GVS max uptake was determined as 0.4% max uptake at 90% RH.

The record behind these values is patent US12201610B2, “Compositions comprising aticaprant” (Janssen Pharmaceuticals, Inc., priority 2022, dated 2025).
